In ChEMBL document CHEMBL1201862, “PubChem BioAssay data set” (2004):
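In this assay, cells in 96-well plates receive the compound at five concentrations for 48 hours. Endpoints are linearly interpolated between the surrounding concentrations. GI50 is the concentration that inhibits growth by half.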 Calls of active or inactive are those of the source. Cut-off read from the data, not from the text of the source: active = GI50 up to about 1.1 µM and inactive = higher.

Columns and labels:
Assay in all cases: NCI anticancer screen, dose series, 48 h
HOP-62 = tested on: HOP-62
HT-29 = tested on: HT-29
RPMI-8226 = tested on: RPMI-8226
SK-OV-3 = tested on: SK-OV-3
SW-620 = tested on: SW-620
SK-MEL-2 = tested on: SK-MEL-2
MCF7 = tested on: MCF7
NCI-H522 = tested on: NCI-H522
786-0 = tested on: 786-0
SNB-19 = tested on: SNB-19
NCI-H460 = tested on: NCI-H460
MDA-N = tested on: MDA-N
CCRF-CEM = tested on: CCRF-CEM
IGROV-1 = tested on: IGROV-1
UACC-257 = tested on: UACC-257
TK-10 = tested on: TK-10
HL-60 = tested on: HL-60
PC-3 = tested on: PC-3
A498 = tested on: A498
COLO 205 = tested on: COLO 205

SMILES | GI50 (HOP-62) | GI50 (HT-29) | GI50 (RPMI-8226) | GI50 (SK-OV-3) | GI50 (SW-620) | GI50 (SK-MEL-2) | GI50 (MCF7) | GI50 (NCI-H522) | GI50 (786-0) | GI50 (SNB-19) | GI50 (NCI-H460) | GI50 (MDA-N) | GI50 (CCRF-CEM) | GI50 (IGROV-1) | GI50 (UACC-257) | GI50 (TK-10) | GI50 (HL-60) | GI50 (PC-3) | GI50 (A498) | GI50 (COLO 205)
COC(=O)c1ccccc1C#CC#Cc1ccccc1C(=O)OC | > 10 µM (inactive) | 6.4 µM (inactive) | > 10 µM (inactive) | > 10 µM (inactive) | > 10 µM (inactive) | > 10 µM (inactive) | 0.611 µM (active) | > 10 µM (inactive) | > 10 µM (inactive) | > 10 µM (inactive) | > 10 µM (inactive) | > 10 µM (inactive) | > 10 µM (inactive) | > 10 µM (inactive) | > 10 µM (inactive) | > 10 µM (inactive) | 4.76 µM (inactive) | 9.06 µM (inactive) | > 10 µM (inactive) | 1.69 µM (inactive)
CCC(=O)COc1ccc(NC(NC(=O)C(C(F)(F)F)C(F)(F)F)(C(F)(F)F)C(F)(F)F)cc1 | > 100 µM (inactive) | 22.7 µM (inactive) | 16.9 µM (inactive) | 55.6 µM (inactive) | 41.3 µM (inactive) | 30.3 µM (inactive) | 27.2 µM (inactive) | 18.4 µM (inactive) | 23.1 µM (inactive) | 46.9 µM (inactive) | 77.4 µM (inactive) | 28.3 µM (inactive) | 22.3 µM (inactive) | 19.4 µM (inactive) | 53.7 µM (inactive) | 37 µM (inactive) | 22.2 µM (inactive) | 48.1 µM (inactive) | 60.4 µM (inactive) | 21.2 µM (inactive)
COc1ccc(-c2sc(Br)c3c2C(=O)C2OC(=O)NC32)cc1OC (stereo not given) | > 100 µM (inactive) | > 100 µM (inactive) | > 100 µM (inactive) | > 100 µM (inactive) | > 100 µM (inactive) | > 100 µM (inactive) | > 100 µM (inactive) | > 100 µM (inactive) | > 100 µM (inactive) | > 100 µM (inactive) | > 100 µM (inactive) | > 100 µM (inactive) | > 100 µM (inactive) | > 100 µM (inactive) | > 100 µM (inactive) | > 100 µM (inactive) | > 100 µM (inactive) | > 100 µM (inactive) | > 100 µM (inactive) | > 100 µM (inactive)
O=C1CC(c2ccccc2Cl)C2(C(=O)NC(=S)NC2=O)C(c2ccccc2Cl)C1 (stereo not given) | 34.2 µM (inactive) | 74 µM (inactive) | 34.1 µM (inactive) | 43 µM (inactive) | 35.7 µM (inactive) | 37.1 µM (inactive) | 18.3 µM (inactive) | 34.1 µM (inactive) | 21.5 µM (inactive) | 13.2 µM (inactive) | 20 µM (inactive) | 26.8 µM (inactive) | 35.6 µM (inactive) | 25.9 µM (inactive) | 13.6 µM (inactive) | 0.0302 µM (active) | 36.5 µM (inactive) | 23.6 µM (inactive) | 21.4 µM (inactive) | 31.3 µM (inactive)
O=c1/c(=C/c2ccc(-c3ccc(Cl)cc3Cl)o2)sc2n1[C@@H](c1ccc3c(c1)OCO3)C=C(c1cc(F)c(Cl)cc1Cl)N=2 | 5.87 µM (inactive) | 25.6 µM (inactive) | 26.1 µM (inactive) | 21.5 µM (inactive) | 35.8 µM (inactive) | 26 µM (inactive) | 26 µM (inactive) | 49.1 µM (inactive) | 42.9 µM (inactive) | 28.8 µM (inactive) | 37 µM (inactive) | 37.8 µM (inactive) | 38.7 µM (inactive) | 34.3 µM (inactive) | 22.6 µM (inactive) | 7.78 µM (inactive) | 27.2 µM (inactive) | 69 µM (inactive) | 2.26 µM (inactive) | 38.7 µM (inactive)
CNC1C(OC2C(OC3C(O)C(O)C(O)C(O)C3O)OC(C)C2(O)CO)OC(CO)C(O)C1O.N=C(N)N.NC(=O)O (stereo not given) | > 100 µM (inactive) | > 100 µM (inactive) | > 100 µM (inactive) | > 100 µM (inactive) | > 100 µM (inactive) | > 100 µM (inactive) | > 100 µM (inactive) | > 100 µM (inactive) | > 100 µM (inactive) | > 100 µM (inactive) | > 100 µM (inactive) | > 100 µM (inactive) | > 100 µM (inactive) | > 100 µM (inactive) | > 100 µM (inactive) | > 100 µM (inactive) | > 100 µM (inactive) | > 100 µM (inactive) | > 100 µM (inactive) | > 100 µM (inactive)
